Several values for one entry are separate records, joined by “and”; a condition that tells them apart may be missing. Identical values can stand only once. Numbers after ± are expanded uncertainties.
Details: 283.16 K, Liquid, Vibrating tube method

SMILES: CCCCCC(=O)OCC(COC(=O)CCCCC)(COC(=O)CCCCC)COC(=O)CCCCC [pentaerythritol tetrahexanoate]
- mass density (94 kPa): 1004.3 ± 1.2 kg/m3
- mass density (94.1 kPa): 1004.2 ± 1.2 kg/m3 and 1004.1 ± 1.2 kg/m3
- mass density (94.2 kPa): 1004.2 ± 1.2 kg/m3
- mass density (94.3 kPa): 1004.2 ± 1.2 kg/m3
- mass density (94.5 kPa): 1004.2 ± 1.2 kg/m3 and 1004.1 ± 1.2 kg/m3
- mass density (94.7 kPa): 1004.1 ± 1.2 kg/m3
- mass density (94.8 kPa): 1004.2 ± 1.2 kg/m3
- mass density (95 kPa): 1004.1 ± 1.2 kg/m3 and 1004.2 ± 1.2 kg/m3
- mass density (95.2 kPa): 1004.1 ± 1.2 kg/m3 and 1004.3 ± 1.2 kg/m3
- mass density (95.4 kPa): 1004.2 ± 1.2 kg/m3 and 1004.1 ± 1.2 kg/m3
- mass density (95.5 kPa): 1004.2 ± 1.2 kg/m3 and 1004.1 ± 1.2 kg/m3
- mass density (95.9 kPa): 1004.2 ± 1.2 kg/m3
- mass density (96.1 kPa): 1004.2 ± 1.2 kg/m3
- mass density (96.9 kPa): 1004.1 ± 1.2 kg/m3
- mass density (97.1 kPa): 1004.3 ± 1.2 kg/m3
- mass density (97.4 kPa): 1004.3 ± 1.2 kg/m3
- mass density (97.8 kPa): 1004.1 ± 1.2 kg/m3
- mass density (98.1 kPa): 1004.2 ± 1.2 kg/m3
- mass density (98.3 kPa): 1004.4 ± 1.2 kg/m3
- mass density (98.5 kPa): 1004.1 ± 1.2 kg/m3
- mass density (98.6 kPa): 1004.2 ± 1.2 kg/m3
- mass density (99 kPa): 1004.2 ± 1.2 kg/m3
- mass density (99.3 kPa): 1004.2 ± 1.2 kg/m3
- mass density (99.5 kPa): 1004.2 ± 1.2 kg/m3
- mass density (99.7 kPa): 1004.2 ± 1.2 kg/m3 and 1004.1 ± 1.2 kg/m3
- mass density (100 kPa): 1004.1 ± 1.2 kg/m3 and 1004.2 ± 1.2 kg/m3
- mass density (100.2 kPa): 1004.2 ± 1.2 kg/m3 and 1004.3 ± 1.2 kg/m3
- mass density (100.4 kPa): 1004.2 ± 1.2 kg/m3
- mass density (100.5 kPa): 1004.2 ± 1.2 kg/m3
- mass density (100.7 kPa): 1004.1 ± 1.2 kg/m3
- mass density (101 kPa): 1004.2 ± 1.2 kg/m3 and 1004.1 ± 1.2 kg/m3
- mass density (101.1 kPa): 1004.2 ± 1.2 kg/m3
- mass density (101.2 kPa): 1004.3 ± 1.2 kg/m3 and 1004.1 ± 1.2 kg/m3
- mass density (101.4 kPa): 1004.3 ± 1.2 kg/m3 and 1004.1 ± 1.2 kg/m3
- mass density (101.7 kPa): 1004.2 ± 1.2 kg/m3
- mass density (102.2 kPa): 1004.1 ± 1.2 kg/m3
- mass density (102.4 kPa): 1004.2 ± 1.2 kg/m3
- mass density (102.6 kPa): 1004.2 ± 1.2 kg/m3 and 1004.1 ± 1.2 kg/m3
- mass density (102.8 kPa): 1004.3 ± 1.2 kg/m3
- mass density (103.1 kPa): 1004.1 ± 1.2 kg/m3 and 1004.2 ± 1.2 kg/m3
- mass density (103.3 kPa): 1004.2 ± 1.2 kg/m3
- mass density (103.4 kPa): 1004.1 ± 1.2 kg/m3
- mass density (103.6 kPa): 1004.1 ± 1.2 kg/m3
- mass density (104 kPa): 1004.1 ± 1.2 kg/m3 and 1004.3 ± 1.2 kg/m3
- mass density (104.1 kPa): 1004.1 ± 1.2 kg/m3
- mass density (104.3 kPa): 1004.2 ± 1.2 kg/m3
- mass density (104.5 kPa): 1004.1 ± 1.2 kg/m3 and 1004.2 ± 1.2 kg/m3
- mass density (105 kPa): 1004.2 ± 1.2 kg/m3
- mass density (105.2 kPa): 1004.1 ± 1.2 kg/m3
- mass density (105.3 kPa): 1004.2 ± 1.2 kg/m3
- mass density (105.5 kPa): 1004.1 ± 1.2 kg/m3
- mass density (105.8 kPa): 1004.2 ± 1.2 kg/m3 and 1004.3 ± 1.2 kg/m3
- mass density (106 kPa): 1004.1 ± 1.2 kg/m3
- mass density (106.2 kPa): 1004.2 ± 1.2 kg/m3
- mass density (106.3 kPa): 1004.2 ± 1.2 kg/m3
- mass density (106.4 kPa): 1004.1 ± 1.2 kg/m3
- mass density (106.5 kPa): 1004.2 ± 1.2 kg/m3
- mass density (106.7 kPa): 1004.3 ± 1.2 kg/m3
- mass density (106.9 kPa): 1004.2 ± 1.2 kg/m3
- mass density (107 kPa): 1004.2 ± 1.2 kg/m3 and 1004.1 ± 1.2 kg/m3
- mass density (107.2 kPa): 1004.1 ± 1.2 kg/m3
- mass density (107.9 kPa): 1004.2 ± 1.2 kg/m3 and 1004.3 ± 1.2 kg/m3
- mass density (108.2 kPa): 1004.2 ± 1.2 kg/m3
- mass density (108.6 kPa): 1004.2 ± 1.2 kg/m3
- mass density (108.7 kPa): 1004.1 ± 1.2 kg/m3 and 1004.2 ± 1.2 kg/m3
- mass density (108.9 kPa): 1004.2 ± 1.2 kg/m3
- mass density (109.4 kPa): 1004.2 ± 1.2 kg/m3
- mass density (109.6 kPa): 1004.2 ± 1.2 kg/m3
- mass density (109.8 kPa): 1004.1 ± 1.2 kg/m3
- mass density (109.9 kPa): 1004.2 ± 1.2 kg/m3
- mass density (110.1 kPa): 1004.2 ± 1.2 kg/m3
- mass density (110.3 kPa): 1004.2 ± 1.2 kg/m3
- mass density (110.5 kPa): 1004.1 ± 1.2 kg/m3
- mass density (110.6 kPa): 1004.4 ± 1.2 kg/m3 and 1004.2 ± 1.2 kg/m3
- mass density (110.8 kPa): 1004.2 ± 1.2 kg/m3
- mass density (111 kPa): 1004.1 ± 1.2 kg/m3
- mass density (111.1 kPa): 1004.2 ± 1.2 kg/m3
- mass density (111.3 kPa): 1004.2 ± 1.2 kg/m3
- mass density (119.9 kPa): 1004.1 ± 1.2 kg/m3
- mass density (120.5 kPa): 1004.2 ± 1.2 kg/m3
- mass density (120.6 kPa): 1004.1 ± 1.2 kg/m3
- mass density (120.8 kPa): 1004.2 ± 1.2 kg/m3
- mass density (121 kPa): 1004.2 ± 1.2 kg/m3 and 1004.1 ± 1.2 kg/m3
- mass density (121.1 kPa): 1004.3 ± 1.2 kg/m3
- mass density (126.7 kPa): 1004.3 ± 1.2 kg/m3
- mass density (126.9 kPa): 1004.4 ± 1.2 kg/m3 and 1004.2 ± 1.2 kg/m3
- mass density (127 kPa): 1004.2 ± 1.2 kg/m3
- mass density (127.4 kPa): 1004.3 ± 1.2 kg/m3
- mass density (127.5 kPa): 1004.1 ± 1.2 kg/m3
- mass density (127.7 kPa): 1004.1 ± 1.2 kg/m3
- mass density (128.4 kPa): 1004.2 ± 1.2 kg/m3
- mass density (128.6 kPa): 1004.3 ± 1.2 kg/m3
- mass density (128.8 kPa): 1004.2 ± 1.2 kg/m3
- mass density (129.1 kPa): 1004.2 ± 1.2 kg/m3
- mass density (129.8 kPa): 1004.2 ± 1.2 kg/m3 and 1004.1 ± 1.2 kg/m3 and 1004.3 ± 1.2 kg/m3
- mass density (130.3 kPa): 1004.2 ± 1.2 kg/m3
- mass density (130.8 kPa): 1004.2 ± 1.2 kg/m3 and 1004.1 ± 1.2 kg/m3
- mass density (131.2 kPa): 1004.3 ± 1.2 kg/m3
- mass density (131.5 kPa): 1004.2 ± 1.2 kg/m3
- mass density (131.9 kPa): 1004.2 ± 1.2 kg/m3
- mass density (132 kPa): 1004.3 ± 1.2 kg/m3
- mass density (132.2 kPa): 1004.3 ± 1.2 kg/m3
- mass density (132.4 kPa): 1004.1 ± 1.2 kg/m3
- mass density (132.6 kPa): 1004.2 ± 1.2 kg/m3
- mass density (132.7 kPa): 1004 ± 1.2 kg/m3
- mass density (133.1 kPa): 1004.2 ± 1.2 kg/m3
- mass density (133.4 kPa): 1004.2 ± 1.2 kg/m3
- mass density (133.8 kPa): 1004.2 ± 1.2 kg/m3
- mass density (145.2 kPa): 1004.2 ± 1.2 kg/m3
- mass density (145.6 kPa): 1004.2 ± 1.2 kg/m3
- mass density (146.1 kPa): 1004.2 ± 1.2 kg/m3
- mass density (147 kPa): 1004.2 ± 1.2 kg/m3
- mass density (148.7 kPa): 1004.2 ± 1.2 kg/m3
- mass density (149.2 kPa): 1004.2 ± 1.2 kg/m3
- mass density (149.4 kPa): 1004.2 ± 1.2 kg/m3
- mass density (149.8 kPa): 1004.4 ± 1.2 kg/m3
- mass density (150.1 kPa): 1004.3 ± 1.2 kg/m3 and 1004.2 ± 1.2 kg/m3
- mass density (158.8 kPa): 1004.2 ± 1.2 kg/m3
- mass density (159 kPa): 1004.1 ± 1.2 kg/m3
- mass density (159.1 kPa): 1004.2 ± 1.2 kg/m3
- mass density (159.7 kPa): 1004.3 ± 1.2 kg/m3
- mass density (159.8 kPa): 1004.2 ± 1.2 kg/m3
- mass density (160.2 kPa): 1004.3 ± 1.2 kg/m3
- mass density (168.7 kPa): 1004.2 ± 1.2 kg/m3
- mass density (168.9 kPa): 1004.2 ± 1.2 kg/m3
- mass density (169.4 kPa): 1004.2 ± 1.2 kg/m3
- mass density (170.2 kPa): 1004.2 ± 1.2 kg/m3
- mass density (170.6 kPa): 1004.2 ± 1.2 kg/m3
- mass density (171.1 kPa): 1004 ± 1.2 kg/m3
- mass density (171.5 kPa): 1004.2 ± 1.2 kg/m3
- mass density (171.8 kPa): 1004.1 ± 1.2 kg/m3
- mass density (172.3 kPa): 1004.3 ± 1.2 kg/m3
- mass density (172.5 kPa): 1004.3 ± 1.2 kg/m3
- mass density (175.8 kPa): 1004.2 ± 1.2 kg/m3
- mass density (176.7 kPa): 1004.2 ± 1.2 kg/m3
- mass density (177 kPa): 1004.3 ± 1.2 kg/m3
- mass density (177.7 kPa): 1004.2 ± 1.2 kg/m3
- mass density (216.6 kPa): 1004.2 ± 1.2 kg/m3
- mass density (218.2 kPa): 1004.4 ± 1.2 kg/m3
- mass density (218.5 kPa): 1004.3 ± 1.2 kg/m3
- mass density (224.6 kPa): 1004.3 ± 1.2 kg/m3
- mass density (224.9 kPa): 1004.3 ± 1.2 kg/m3
- mass density (225.8 kPa): 1004.2 ± 1.2 kg/m3
- mass density (226.1 kPa): 1004.3 ± 1.2 kg/m3
- mass density (226.8 kPa): 1004.3 ± 1.2 kg/m3

— the NIST ThermoML archive (doi:10.1021/je060271a)
